Measured values from patent publication US12527846B2, “Immunodominant proteins and fragments in multiple sclerosis” (UNIVERSITÄT ZÜRICH, priority 2018, dated 2026).
Each block holds one sequence with its values, some of them ahead of it. Ends that are not written are not given here.

Assays:
TCC21.1 [1] = type: cell-based, human
Experimental: TCC21.1 was then tested with the complete decapeptide positional scanning library (200 mixtures; i.e. mixtures representing the 10 positions of a 10-mer and in each of the fixed positions one of the 20 L-amino acids), presented by BCL expressing DRB1*15:01 class II molecules. A similar response pattern was obtained with IL-10 release. Next, a biometrical analysis scoring matrix was generated by assigning numerical values to the stimulatory potential of each of the 20 defined AAs in each of the ten positions of the decapeptide library as previously described (Zhao et al., 2001). Here, the values were calculated as the log base 10 of the median GM-CSF (pg/ml) secretion of three independent experiments in the presence of mixtures, minus the secretion in the absence of mixtures (FIG. 3B). Based on a model of independent contribution of individual AAs to peptide antigen recognition, the predicted stimulatory score of a given peptide is the sum of the matrix values of each AA contained in the peptide at each position (Zhao et al., 2001). […] Using the new “harmonic boost” frame 1 and frame 2 matrices, all natural overlapping 10-mers peptides derived from the UniProt human protein database were scored and ranked as schematically shown in FIG. 2. […]

TCC21.1 [2] = test: Intracellular cytokine staining of TCC21.1 after peptide stimulation; type: cell-based, human
Experimental: Next, the response of TCC21.1 to GDP-L-fucose synthase peptides presented by autologous irradiated PBMCs and BCL was characterized. GDP-L-fucose synthase peptides presented by the two types of APCs were able to induce proliferation. The functional phenotype of this response was also analyzed. […] Unexpectedly, when peptides were presented by autologous BCL, they induced higher levels of IFNγ. In addition, TCC21.1 also released GM-CSF and IL-3 in response to GDP-L-fucose synthase peptides. The release of these two cytokines seems to be a specific feature of this TCC compared with other Th1, Th1* or Th1/2 TLCs that were generated from patients with different conditions. Intracellular cytokine staining confirmed the Th2 functional phenotype of TCC21.1 in response to GDP-L-fucose synthase (96-105, SEQ ID NO: 16). More than 60% of TCC21.1 cells were IL-4+ after stimulation with GDP-L-fucose synthase (96-105, SEQ ID NO: 16), while only around 12% were IFNγ+. Around 60% of the cells were GM-CSF+ and 47.7% of these also IL-4+.
For intracellular cytokine staining, TCC21.1 was analyzed 48 h after stimulation. After 5 h in presence of GolgiStop protein transport inhibitor (BD Biosciences), T cells were labeled with Live/Dead® Aqua (Invitrogen). Following fixation and permeabilization with Cytofix/Cytoperm (BD Biosciences), cells were stained with antibodies against CD4 (APC-Cy7, Biolegend), IFN-γ (FITC, Biolegend), IL-4 (PE, BD Bioscience), GM-CSF (APC, Biolegend) and IL-3 (PE, Biolegend) in PBS containing saponin and BSA, and analyzed by flow cytometry.

TCC21.1 [3] = test: Proliferation of TCC21.1 in response to GDP-L-fucose synthase peptides presented by autologous APCs; type: cell-based, human; settings: 15-mer peptides overlapping by 10 AAs, presented by autologous PBMCs
TCC14 [4] = test: Cytokine secretion of TCC14 on recognition of the RASGRP2 peptide; type: cell-based, human; settings: data not shown
TCC14 [5] = settings: read-out: EC50 (antigen avidity); dose titration, BLS DR2b, proliferation after 72 h

EC50 (TCC21.1 [1]): 0.2 µg/mL
Sequence: NVLHSAFEVG [SEQ ID NO: 16, NVLHSAFEVG]
GM-CSF+ TCC21.1 cells also IL-4+ (TCC21.1 [2]): 47.7%
TCC21.1 cells GM-CSF+ (TCC21.1 [2]): Around 60%
TCC21.1 cells IFNγ+ (TCC21.1 [2]): around 12%
TCC21.1 cells IL-4+ (TCC21.1 [2]): More than 60%

Sequence: NVLHSAFEVGARKVV (listed as Homo sapiens) [SEQ ID NO: 17]
recognition by TCC21.1 (proliferation) (TCC21.1 [3]): recognized

Sequence: VLHSAFEVGA (listed as Homo sapiens) [SEQ ID NO: 18]
GM-CSF release by TCC21.1 (stimulatory capacity) (TCC21.1 [1]; individual decapeptides at 5 pg/ml, presented by BLS cells expressing DRB1*15:01): induced GM-CSF release

Sequence: VHMNDNVLHSAFEVG (listed as Homo sapiens) [SEQ ID NO: 14]
recognition by TCC21.1 (proliferation) (TCC21.1 [3]): recognized

Sequence: LVRYWISAFP [SEQ ID NO: 33, LVRYWISAFP]
cytokine secretion by TCC14 (TCC14 [4]): secretion of Th2 cytokines and also of IFN-γ
EC50 (TCC14 [5]): 12 nM
